Assay results from patent US20220105188A1, “TARGET PROTEIN EED DEGRADATION-INDUCING DEGRADUCER, PREPARATION METHOD THEREOF, AND PHARMACEUTICAL COMPOSITION FOR PREVENTING OR TREATING DISEASES RELATED TO EED, EZH2, OR PRC2, COMPRISING SAME AS ACTIVE INGREDIENT” (KOREA RESEARCH INSTITUTE OF CHEMICAL TECHNOLOGY, priority 2019, published 2022).

The compounds below were run against T1, EED (Homo sapiens, UniProt O75530) (assay: EED Proteolytic Activity Evaluation 2 (western blot, Hela cells)). Details: 1 nM, 10 nM, 100 nM and 1000 nM, 20 hours of treatment.
T1 construct: 2×10^5 Hela cells were injected into a 12-well plate; endogenous in cells; host or cells: HeLa
T1 sequence (O75530 whole entry): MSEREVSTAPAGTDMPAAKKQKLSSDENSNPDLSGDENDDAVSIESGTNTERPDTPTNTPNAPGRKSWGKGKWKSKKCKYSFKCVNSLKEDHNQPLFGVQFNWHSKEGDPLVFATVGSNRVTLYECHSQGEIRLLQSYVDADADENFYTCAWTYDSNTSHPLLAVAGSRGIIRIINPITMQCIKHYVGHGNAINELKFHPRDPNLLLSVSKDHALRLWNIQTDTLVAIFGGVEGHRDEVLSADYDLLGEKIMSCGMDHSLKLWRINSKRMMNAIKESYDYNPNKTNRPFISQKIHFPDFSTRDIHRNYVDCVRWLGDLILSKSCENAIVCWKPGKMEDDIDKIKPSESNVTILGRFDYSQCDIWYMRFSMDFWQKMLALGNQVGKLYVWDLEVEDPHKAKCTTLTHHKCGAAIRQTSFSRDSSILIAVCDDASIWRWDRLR
Type: cell-based
Procedure: [Experiment 2] EED Proteolytic Activity Evaluation 2
In order to evaluate the EED proteolytic activity of the compound according to the present invention, an experiment was conducted as follows.
Specifically, 2×10^5 Hela cells were injected into a 12-well plate, and after 8 hours of stabilization, each well was treated with the example compounds to have final concentrations of 1 nM, 10 nM, 100 nM, and 1000 nM. One well was treated with the volume of DMSO contained in the sample corresponding to the highest concentration in the experimental group. After 20 hours of treatment, the cells were collected and lysed using 80 μl of SDS Lysis buffer (50 mM Tris pH8.0, 1% SDS, 1 mM EDTA, 0.5 mM PMSF, and protease inhibitor cocktail) and then sonication (30 sec on/59 sec off), 5 cycles) to prepare a cell lysate, followed by protein quantification through BCA, followed by Western blot, and the results are shown in Table 3. (Maximum EED degradation rate: A: >50%, B: 25-50%, C: <25%)
For `Cc1cccc(F)c1CN1C[C@H](c2ccc(N3CCN(C(=O)COCCOCCNC(=O)CNc4ccc5c(c4)C(=O)N(C4CCC(=O)NC4=O)C5=O)CC3)cc2)[C@@H](N(C)C)C1` (stereo partly drawn) [Example 121, N-(2-(2-(2-(4-(4-((3S,4R)-4-(dimethylamino)-1-(2-fluoro-6-methylbenzyl)pyrrolidin-3-yl)phenyl)piperazin-1-yl)-2-oxoethoxy)ethoxy)ethyl)-2-((2-(2,6-dioxopiperidin-3-yl)-1,3-dioxoisoindolin-5-yl)amino)acetamide], the “EED degradation rate (Maximum EED degradation rate)” value (“EED degradation rate” below) was “A (A: >50%)”.
`Cc1cccc(F)c1CN1C[C@H](c2ccc(N3CCN(C(=O)COCCOCCOCCNC(=O)CNc4ccc5c(c4)C(=O)N(C4CCC(=O)NC4=O)C5=O)CC3)cc2)[C@@H](N(C)C)C1` (stereo partly drawn) [Example 122, N-(2-(2-(2-(2-(4-(4-((3S,4R)-4-(dimethylamino)-1-(2-fluoro-6-methylbenzyl)pyrrolidin-3-yl)phenyl)piperazin-1-yl)-2-oxoethoxy)ethoxy)ethoxy)ethyl)-2-((2-(2,6-dioxopiperidin-3-yl)-1,3-dioxoisoindolin-5-yl)amino)acetamide] was tested, and the “EED degradation rate” value was “A (A: >50%)”.
`Cc1cccc(F)c1CN1C[C@H](c2ccc(N3CCN(C(=O)CCCNc4cccc5c4C(=O)N(C4CCC(=O)NC4=O)C5=O)CC3)cc2)[C@@H](N(C)C)C1` (stereo partly drawn) [Example 123, 4-((4-(4-(4-((3S,4R)-4-(dimethylamino)-1-(2-fluoro-6-methylbenzyl)pyrrolidin-3-yl)phenyl)piperazin-1-yl)-4-oxobutyl)amino)-2-(2,6-dioxopiperidin-3-yl)isoindolin-1,3-dione] was tested, and the “EED degradation rate” value was “B (B: 25-50%)”.
In the case of `Cc1cccc(F)c1CN1C[C@H](c2ccc(N3CCN(C(=O)CCCNc4ccc5c(c4)C(=O)N(C4CCC(=O)NC4=O)C5=O)CC3)cc2)[C@@H](N(C)C)C1` (stereo partly drawn) [Example 124, 5-((4-(4-(4-((3S,4R)-4-(dimethylamino)-1-(2-fluoro-6-methylbenzyl)pyrrolidin-3-yl)phenyl)piperazin-1-yl)-4-oxobutyl)amino)-2-(2,6-dioxopiperidin-3-yl)isoindolin-1,3-dione], the “EED degradation rate” value is reported as “B (B: 25-50%)”.
`Cc1cccc(F)c1CN1C[C@H](c2ccc(N3CCN(C(=O)CCCCCCCNc4cccc5c4C(=O)N(C4CCC(=O)NC4=O)C5=O)CC3)cc2)[C@@H](N(C)C)C1` (stereo partly drawn) [Example 125, 4-((8-(4-(4-((3S,4R)-4-(dimethylamino)-1-(2-fluoro-6-methylbenzyl)pyrrolidin-3-yl)phenyl)piperazin-1-yl)-8-oxooctyl)amino)-2-(2,6-dioxopiperidin-3-yl)isoindolin-1,3-dione] was tested, and the “EED degradation rate” value was “A (A: >50%)”.
`Cc1cccc(F)c1CN1C[C@H](c2ccc(N3CCN(C(=O)CCCCCCCNc4ccc5c(c4)C(=O)N(C4CCC(=O)NC4=O)C5=O)CC3)cc2)[C@@H](N(C)C)C1` (stereo partly drawn) [Example 126, 5-((8-(4-(4-((3S,4R)-4-(dimethylamino)-1-(2-fluoro-6-methylbenzyl)pyrrolidin-3-yl)phenyl)piperazin-1-yl)-8-oxooctyl)amino)-2-(2,6-dioxopiperidin-3-yl)isoindolin-1,3-dione] was tested, and the “EED degradation rate” value was “B (B: 25-50%)”.
With `O=C1CCC(N2C(=O)c3ccc(NCC(=O)N4CCC(CN5CCC(n6cc(-c7cnc(NCc8ccco8)n8cnnc78)cn6)CC5)CC4)cc3C2=O)C(=O)N1` (stereo not shown) [Example 127, 2-(2,6-dioxopiperidin-3-yl)-5-((2-(4-((4-(4-(5-((furan-2-ylmethyl)amino)-[1,2,4]triazolo[4,3-c]pyrimidin-8-yl)-1H-pyrazol-1-yl)piperidin-1-yl)methyl)piperidin-1-yl)-2-oxoethyl)amino)isoindolin-1,3-dione] the “EED degradation rate” value was “C (C: <25%)”.
In the case of `O=C1CCC(n2nnc3ccc(NCC(=O)N4CCC(CN5CCC(n6cc(-c7cnc(NCc8ccco8)n8cnnc78)cn6)CC5)CC4)cc3c2=O)C(=O)N1` (stereo not shown) [Example 128, 3-(6-((2-(4-((4-(4-(5-((furan-2-ylmethyl)amino)-[1,2,4]triazolo[4,3-c]pyrimidin-8-yl)-1H-pyrazol-1-yl)piperidin-1-yl)methyl)piperidin-1-yl)-2-oxoethyl)amino)-4-oxobenzo[d][1,2,3]triazin-3 (4H)-yl)piperidin-2,6-dione], the “EED degradation rate” value is reported as “C (C: <25%)”.
For `O=C(CNc1ccc2c(c1)C(=O)N(C1CCC(=O)NC1=O)C2=O)NCCOCCOCCN1CCC(n2cc(-c3cnc(NCc4ccco4)n4cnnc34)cn2)CC1` (stereo not shown) [Example 129, 2-((2-(2,6-dioxopiperidin-3-yl)-1,3-dioxoisoindolin-5-yl)amino)-N-(2-(2-(2-(4-(4-(5-((furan-2-ylmethyl)amino)-[1,2,4]triazolo[4,3-c]pyrimidin-8-yl)-1H-pyrazol-1-yl)piperidin-1-yl)ethoxy)ethoxy)ethyl)acetamide], the “EED degradation rate” value was “C (C: <25%)”.
For `O=C(CNc1ccc2nnn(C3CCC(=O)NC3=O)c(=O)c2c1)NCCOCCOCCN1CCC(n2cc(-c3cnc(NCc4ccco4)n4cnnc34)cn2)CC1` (stereo not shown) [Example 130, 2-((3-(2,6-dioxopiperidin-3-yl)-4-oxo-3,4-dihydrobenzo[d][1,2,3]triazin-6-yl)amino)-N-(2-(2-(2-(4-(4-(5-((furan-2-ylmethyl)amino)-[1,2,4]triazolo[4,3-c]pyrimidin-8-yl)-1H-pyrazol-1-yl)piperidin-1-yl)ethoxy)ethoxy)ethyl)acetamide], the “EED degradation rate” value was “C (C: <25%)”.
For `Cc1cccc(F)c1CN1C[C@H](c2ccc(N3CCN(CC4CCN(c5ccc6c(c5)C(=O)N(C5CCC(=O)NC5=O)C6=O)CC4)CC3)cc2)[C@@H](N(C)C)C1` (stereo partly drawn) [Example 131, 5-(4-((4-(4-((3S,4R)-4-(dimethylamino)-1-(2-fluoro-6-methylbenzyl)pyrrolidin-3-yl)phenyl)piperazin-1-yl)methyl)piperidin-1-yl)-2-(2,6-dioxopiperidin-3-yl)isoindolin-1,3-dione], the “EED degradation rate” value was “A (A: >50%)”.
`Cc1cccc(F)c1CN1C[C@H](c2ccc(N3CCN(C(=O)CC4CCN(c5ccc6c(c5)C(=O)N(C5CCC(=O)NC5=O)C6=O)CC4)CC3)cc2)[C@@H](N(C)C)C1` (stereo partly drawn) [Example 132, 5-(4-(2-(4-(4-((3S,4R)-4-(dimethylamino)-1-(2-fluoro-6-methylbenzyl)pyrrolidin-3-yl)phenyl)piperazin-1-yl)-2-oxoethyl)piperidin-1-yl)-2-(2,6-dioxopiperidin-3-yl)isoindolin-1,3-dione] was tested, and the “EED degradation rate” value was “A (A: >50%)”.
With `Cc1cccc(F)c1CN1C[C@H](c2ccc(N3CCN(C(=O)CCC4CCN(c5ccc6c(c5)C(=O)N(C5CCC(=O)NC5=O)C6=O)CC4)CC3)cc2)[C@H](N(C)C)C1` (stereo partly drawn) [Example 133, 5-(4-(3-(4-(4-((3S,4S)-4-(dimethylamino)-1-(2-fluoro-6-methylbenzyl)pyrrolidin-3-yl)phenyl)piperazin-1-yl)-3-oxopropyl)piperidin-1-yl)-2-(2,6-dioxopiperidin-3-yl)isoindolin-1,3-dione] the “EED degradation rate” value was “A (A: >50%)”.
